Test results taken from ChEMBL document CHEMBL5705908, “Structural and chemical insights into the covalent-allosteric inhibition of the protein kinase Akt” (Chem Sci, 2019).
Activity calls are given as the source filed them. The calls are words filed in the database; no cut-off is given here.

Experiments:
KU-19-19 = assay: Antiproliferative activity against human KU-19-19 cells assessed as reduction in cell viability incubated for 5 days by celltiter-glo assay; format: functional, cell-based; conditions: KU-19-19, 120 h
[1] = target: RAC-alpha serine/threonine-protein kinase (Homo sapiens) (UniProt P31749); assay: Covalent-allosteric inhibition of full length N-terminal his6-tagged AKT (2 to 446 residues) (unknown origin) expressed in Spodoptera frugiperda Sf9 cells assessed as kinact/ki ratio
RAC-alpha serine/threonine-protein kinase (Homo sapiens), sequence (P31749 whole entry, the tested form may be a part): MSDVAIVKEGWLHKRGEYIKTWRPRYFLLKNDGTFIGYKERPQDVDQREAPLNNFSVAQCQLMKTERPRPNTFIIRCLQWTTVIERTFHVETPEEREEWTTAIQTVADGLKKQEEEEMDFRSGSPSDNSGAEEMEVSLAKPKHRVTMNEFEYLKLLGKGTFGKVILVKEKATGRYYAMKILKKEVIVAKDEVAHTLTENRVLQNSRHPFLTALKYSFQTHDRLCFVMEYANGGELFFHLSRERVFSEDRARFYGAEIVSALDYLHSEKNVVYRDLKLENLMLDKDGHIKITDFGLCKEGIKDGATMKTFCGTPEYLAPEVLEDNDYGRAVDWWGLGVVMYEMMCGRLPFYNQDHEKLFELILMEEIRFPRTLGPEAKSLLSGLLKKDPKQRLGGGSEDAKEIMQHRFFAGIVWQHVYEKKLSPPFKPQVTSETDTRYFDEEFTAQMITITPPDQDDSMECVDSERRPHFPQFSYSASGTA

[2] = target: RAC-alpha serine/threonine-protein kinase (Homo sapiens) (UniProt P31749); assay: Covalent-allosteric inhibition of full length N-terminal his6-tagged AKT (2 to 446 residues) (unknown origin) expressed in Spodoptera frugiperda Sf9 cells assessed as kinact
[3] = target: RAC-alpha serine/threonine-protein kinase (Homo sapiens) (UniProt P31749); assay: Covalent-allosteric inhibition of full length N-terminal his6-tagged AKT (2 to 446 residues) (unknown origin) expressed in Spodoptera frugiperda Sf9 cells at 100 uM incubated for 1 hr by Mass spectrometry analysis
MCF7 = assay: Antiproliferative activity against human MCF7 cells assessed as reduction in cell viability incubated for 5 days by celltiter-glo assay; format: functional, cell-based; conditions: MCF7, 120 h
BT-474 = assay: Antiproliferative activity against human BT-474 cells assessed as reduction in cell viability incubated for 5 days by celltiter-glo assay; format: functional, cell-based; conditions: BT-474, 120 h
AN3-CA = assay: Antiproliferative activity against human AN3-CA cells assessed as reduction in cell viability incubated for 5 days by celltiter-glo assay; format: functional, cell-based; conditions: 120 h

Compound	EC50 (KU-19-19) [µM]	Ratio [1] [µM⁻¹ s⁻¹]	Kinact [2] [min⁻¹]	also measured
NC1(C(=O)N[C@@H](CCO)c2ccc(Cl)cc2)CCN(c2nc[nH]c3nccc2-3)CC1 [CAPIVASERTIB]	20.9	–	–	–
C=CC(=O)Nc1ccc2c(c1)n(C1CCN(Cc3ccc(-c4nc5cc[nH]c(=O)c5cc4-c4ccccc4)cc3)CC1)c(=O)n2C	–	0.19	0.121	inhibition [3]: Active
C=CC(=O)Nc1cccc(C(=O)NC2CCN(Cc3ccc(-c4nc5cc[nH]c(=O)c5cc4-c4ccccc4)cc3)CC2)c1	14.9	–	–	–
CN(C)C/C=C/C(=O)Nc1ccc2[nH]c(=O)n(C3CCN(Cc4ccc(-c5nc6cc[nH]c(=O)c6cc5-c5ccccc5)cc4)CC3)c2c1	–	0.025	0.05	EC50 (MCF7): 20.3 µM; EC50 (BT-474): 12 µM; EC50 (AN3-CA): 15.3 µM
CC(C)NC[C@@H](C(=O)N1CCN(c2ncnc3c2[C@H](C)C[C@H]3O)CC1)c1ccc(Cl)cc1 [IPATASERTIB]	24	–	–	–
C=CC(=O)Nc1ccc(C(=O)NC2CCN(Cc3ccc(-c4nc5cc[nH]c(=O)c5cc4-c4ccccc4)cc3)CC2)s1	–	0.038	0.088	–
C=CC(=O)Nc1cccc(CNC2CCN(Cc3ccc(-c4nc5cc[nH]c(=O)c5cc4-c4ccccc4)cc3)CC2)c1	–	0.004	0.071	–
C=CC(=O)Nc1cc(Br)cc(C(=O)NC2CCN(Cc3ccc(-c4nc5cc[nH]c(=O)c5cc4-c4ccccc4)cc3)CC2)c1	–	0.168	0.078	–
C=CC(=O)Nc1ccc(C(=O)NC2CCN(Cc3ccc(-c4nc5cc[nH]c(=O)c5cc4-c4ccccc4)cc3)CC2)c(F)c1	–	0.014	0.085	–
C=CC(=O)Nc1ccc(C(=O)NC2CCN(Cc3ccc(-c4nc5cc[nH]c(=O)c5cc4-c4ccccc4)cc3)CC2)cc1	11.3	0.002	0.042	–
C=CC(=O)Nc1ccc2[nH]c(=O)n(C3CCN(Cc4ccc(-c5nc6cc[nH]c(=O)c6cc5-c5ccccc5)cc4)CC3)c2c1	–	–	–	inhibition [3]: Active
C=CC(=O)Nc1ccccc1C(=O)NC1CCN(Cc2ccc(-c3nc4cc[nH]c(=O)c4cc3-c3ccccc3)cc2)CC1	–	0.085	0.138	–
